Earlier results on two compounds are cited in patent US20230405018A1, “FLUMAZENIL FORMULATIONS FOR SUBCUTANEOUS INJECTION AND METHODS OF TREATMENT USING GABA RECEPTOR MODULATORS” (Bexson Biomedical, Inc., priority 2020, published 2023).

Like-named read-outs stand apart in the source and are kept apart here.

The conditions of data set [1]: reported.
For data set [2], the system named is benzodiazepine withdrawal symptoms.
The conditions of data set [3]: acidic USP flumazenil preparations (pH ~4).

With “sulfobutyl-ether-beta-cyclodextrin [SBE-β-CD]”, the “Solubility of SBE-β-CD” value in data set [1] was 600 mg/mL.

On to `CCOC(=O)c1ncn2c1CN(C)C(=O)c1cc(F)ccc1-2` [flumazenil, ethyl 8-fluoro-5,6-dihydro-5-methyl-6-oxo-4H-imidazo[1,5-a][1,4] benzodiazepine-3-carboxylate], for which the “Systemic availability after first pass hepatic metabolism” value (in vivo) is “less than 25%”. The Oral bioavailability result (in vivo, po) was “extremely limited and poor”. Moreover, the Half-life (rapid metabolism in the liver) is 4 to 11 min. Further, in data set [2] (bolus administrations in conjunction with benzodiazepine tapering), the “Effect on withdrawal, craving and cessation” value was “reduction of benzodiazepine withdrawal symptoms, reduced craving, and increased completion of cessation of benzodiazepines without relapse”. Further, the “Effect on withdrawal symptoms” value in data set [2] (continuous 2 mg/24 h over 96 h by IV with oxazepam tapering) is listed as “drastically curtail withdrawal symptoms”; in data set [2] (~1-2 mg bolus over several hours, high dose benzodiazepine patients abstinent at least three weeks), “reduce withdrawal symptoms”. Moreover, the “Solubility / concentration of flumazenil in USP preparations” value in data set [3] is around 0.1 mg/mL.
